Data taken from patent publication US20110200646A1, “The TRPVL Antagonists SB-795498 For Treating Rhinitis” (priority 2008, published 2011).
pIC50: −log10 of the molar value. Blank lines part the entries; values can stand above or below the molecule they belong to.

Legend:
[1] = system: Capsaicin Induced Currents recorded from Nasally Innervated Guinea-Pig Trigeminal Ganglia Cell Bodies; assay: Whole cell patch clamp of capsaicin induced currents in nasally innervated trigeminal ganglia neurons; format: cell-based
Description: Nasal afferent neurons were retrogradely labelled by using DiIC13(3) solution (2% in DMSO, sonicated to ensure solubility) (Dil, Invitrogen), A guinea pig was dosed with atropine (1 mg/kg i.p.) 5 minutes prior to anaesthesia with isoflurane. Once unconscious 25 μl of the Dil solution was placed into the right nostril and the guinea pig allowed to recover. After 24 hours the procedure was repeated and the left nostril dosed. After a period of 2 weeks the guinea pig was killed via CO2 asphyxiation and the trigeminal ganglia rapidly dissected. An area of approximately 3 mm×2 mm which contained neurons that innervated the nose was isolated (J. Allergy Clin. Immunol. 2005, 116, 1282), cut into smaller pieces and incubated in enzyme buffer (8 mg papain in 4 ml L-15) at 37° C. for 40 min. The papain solution was removed and the tissue washed three times with 5-5 media (5-5 Media was prepared by the addition of 5 ml Fetal Bovine Serum, 5 ml Horse Serum, 1 ml 5000 Units Penicillin/5000 […] Streptomycin, 1 ml 30% Glucose and 0.33 ml of 1× stock Insulin Transferrin Sodium Selenite to 90 ml Minimum Essential Media with Earle's salts and Glutamax). The neurons were dissociated by trituration with 3 fire-polished glass Pastuer pipettes of decreasing tip size, then the resulting cell suspension filtered and centrifuged (1000 g for 4 min). The pellet was resuspended in 300 μl of 5-5 media. 25 μl of the cell suspension was plated onto poly-D-lysine and laminin coated 12 mm glass coverslips and placed in an incubator at 37° C. After 2 hours the coverslips were flooded with 5-5 media and used within 48 hours. Conventional whole cell patch clamp techniques were employed under voltage clamp (holding potential of −70 mV) at room temperature. Drug solutions were applied to the cell using a Rapid Solution Changer (Biologic). Cell bodies that had innervated the nose were identified using a fluorescence based microscope. All data was analysed using pClamp version 10.2.0.9 and 10.2.0.10 (Molecular Devices Inc).

[2] = system: hypertonic saline provoked nasal secretion; assay: Contralateral nasal fluid secretion (MRI) after ipsilateral hypertonic saline challenge in sensitised guinea pig; format: in vivo; settings: topical micronised 1 mg/ml, 1 hour pre-treatment, 10% hypertonic saline challenge; p<0.005
Description: (§1) Dunkin Hartley guinea pigs (ca. 180-200 g) were intranasally sensitised into both nostrils twice daily for 5 days with 25 μl of 10 μg ovalbimun plus 10 mg aluminium hydroxide in saline. This was followed up with one week of intranasal challenge in both nostrils with ovalbumin 25 μl of a 5 mg/ml saline solution per nostril (weekends eliminated).
(§2) Six animals per group were studied and a repeat of each study conducted to provide up to 12 animals per group in the final data set. Animals were pretreated with Compound 1 (intranasal administration 25 μl per nostril of a suspension or oral administration 1 ml of a solution in 50% deionised water 5% DMSO and 45% PEG 200). At a set time point the animals were anaethetised with urethane (1.5 g/kg) i.p. and scanned with magnetic resonance imaging (MRI) to obtain baseline nasal images. Each animal was then removed from the scanner and received an ipsilateral nasal challenge of capsaicin (50 μl of a solution 0.3 mM 5% DMSO, 5% Tween 80, 90% Phosphate buffered saline)) or 10% hypertonic saline solution (50 μl) (administered by pipette. The animal was rescanned at 10 minutes post-challenge to measure the contralateral fluid volumes.
(§3) The fluid measurement was made using standard T2 weighted spin echo MRI sequences on a 2 Tesla Bruker Medspec MRI scanner. The raw data was collected using Paravision 3.0.2 (Bruker) software. […]

[3] = system: capsaicin provoked nasal secretion; assay: Contralateral nasal fluid secretion (MRI) after ipsilateral capsaicin challenge in sensitised guinea pig; format: in vivo; settings: for reduction of contralateral fluid secretion: oral, non micronised, 1 hour prior to 0.3 mM capsaicin challenge; for inhibition of capsaicin provoked nasal secretion: topical (intranasal) non-micronised
Description: as §1, §2
The fluid measurement was made using standard T2 weighted spin echo MRI sequences on a 2 Tesla Bruker Medspec MRI scanner. The raw data was collected using Paravision 3.0.2 (Bruker) software. Fluid measurements were made using grey level thresholding technique using Mayo Clinic software Analyze 7.0. Statistical analysis was carried out using the Statistica 6.0 software by StatSoft

[4] = system: capsaicin provoked nasal tissue response; assay: Contralateral nasal tissue volume (MRI) after ipsilateral capsaicin challenge in guinea pig; format: in vivo; settings: 1 hour pre-treatment, 0.3 mM capsaicin challenge
Description: as §1, §2, §3

pIC50 ([1]; Cavia porcellus, Neuron, 1 μM capsaicin, voltage clamp −70 mV, room temperature, Hill equation fit, n>4, read-out: IC50, inhibition of capsaicin response (inward current)): 7.23
Structure (SMILES): O=C(Nc1ccccc1Br)N[C@@H]1CCN(c2ccc(C(F)(F)F)cn2)C1 [Compound 1, N-(2-bromophenyl)-N′-[((R)-1-(5-trifluoromethyl-2-pyridyl)pyrrolidin-3-yl)]urea]
inhibition of the capsaicin response (current), concentration dependence ([1]; voltage clamp −70 mV): concentration related inhibition | reversibility of inhibition on switching from capsaicin and Compound 1 to capsaicin only ([1]; voltage clamp −70 mV): rapid reversal | inhibition of the hypertonic saline response (nasal secretion) [2]: 68% | reduction of contralateral fluid secretion ([3]; 10 mg/kg, p<0.05): ca. 50% | reduction of contralateral fluid secretion ([3]; 30 mg/kg, p<0.001): ca. 70% | inhibition of capsaicin provoked nasal secretion ([3]; 10 mg/ml, 1 hour pre-treatment, p<0.005): > 50% | inhibition of capsaicin provoked nasal secretion ([3]; 30 mg/ml, 1 hour pre-treatment): ca. 75% | inhibition of the capsaicin response (nasal secretion) ([3]; topical micronised, 1 hour pre-treatment, all the doses evaluated): significant inhibition | inhibition of contralateral response (nasal secretion) ([3]; topical micronised, capsaicin challenge 12 hours after pre-treatment): 62% | inhibition of contralateral response (nasal secretion) ([3]; topical micronised, capsaicin challenge 24 hours after pre-treatment): 52% | reduction of contralateral tissue swelling compared to vehicle control ([4]; topical micronised 3 mg/ml, p<0.05): 56% | reduction of contralateral tissue swelling compared to vehicle control ([4]; topical micronised 30 mg/ml, p<0.01): 83%

Structure (SMILES): COc1cc(CNC(=O)CCCC/C=C/C(C)C)ccc1O [capsaicin, reference compound]
cells tested producing an inward current ([1]; 1 μM capsaicin, small diameter (<30 μm) fluorescent neurons, voltage clamped at −70 mV): 56%
